Values quoted from earlier work in patent publication US20060233724A1, “Medicinal composition for peridontal pocket administration containing bisphosphonic acid derivative or its salt as the active ingredient” (Toray Industries, Inc., priority 2002, published 2006).
Read-outs that look alike come from different tables or passages of the source.

Tests used:
[1] = test system: experimental movement of molars; settings: rat
[2] = test system: involution of alveolar bone, attachment level; settings: canine periodontal disease models, subcutaneous or oral administration
[3] = test system: involution of alveolar bone; settings: hamster periodontal disease models
[4] = test system: destruction of alveolar bone; settings: canine periodontal disease model, oral administration
[5] = test system: destruction of alveolar bone; settings: simian periodontal disease model, oral administration

In the case of `O=P(O)(O)C(O)(Cc1cccnc1)P(=O)(O)O` [risedronate, 1-hydroxy-2-(3-pyridyl)ethylidene-1,1-bisphosphonic acid], the “effect in experimental movement of molars” value ([1]; local administration to the vicinity of first molar) is listed as “effective”.
In the case of `NCCC(O)(P(=O)(O)O)P(=O)(O)O` [pamidronate], the “effect in experimental movement of molars” value ([1]; local submucosal administration to the palate) is given as “effective”.
In the case of `O=P(O)(O)C(NC1CCCCCC1)P(=O)(O)O` [Incadronate disodium, 1-(cycloheptylamino) methylidene-1,1-bisphosphonic acid], the attachment level [2] is listed as “action of improvement in attachment level”, the “involution of alveolar bone” value [2] is listed as “action against involution of alveolar bone” and the “involution of alveolar bone” value [3] is listed as “exhibits inhibiting action against involution of alveolar bone”.
For `NCCCC(O)(P(=O)(O)O)P(=O)(O)O` [alendronate, 4-amino-1-hydroxybutylidene-1,1-bisphosphonic acid], the “destruction of alveolar bone” value [4] is given as “inhibited destruction of alveolar bone” and the “destruction of alveolar bone” value [5] is given as “inhibited destruction of alveolar bone”.
